Among the data in PubChem BioAssay AID2305 (GlaxoSmithKline (GSK), 2010) are IC50 values, retold here.

The test concerns P. falciparum 3D7 growth, pLDH absorbance. Put plainly: P. falciparum 3D7 growth inhibition, dose response, strain 3D7 (AID 2305).

For `CCCCCCCNCc1c(O)ccc2c(CNCCCCCCC)c(O)ccc12`, the IC50 (usually the midpoint of a concentration-inhibition curve) came to 150 nM.
For `CCN(CCNC(=O)C1CCN(c2cc(-c3cccc(C)c3)ncn2)CC1)Cc1ccccc1`, the IC50 was determined as 170 nM.
The figure for `CN(C)CCNc1cc(-c2cccnc2)nc(-c2ccncc2)n1` is 600 nM.
For the compound `Cc1cnc(Nc2ccccc2)nc1NCCC(=O)Nc1ccccc1`, the IC50 was 1160 nM.
The figure for `O=C(Cc1cccc(Cl)c1)N1CCc2cc3nccc(N4CCN5CCC[C@H]5C4)c3cc21` is 850 nM.
`O=C(CSc1nccn1C1CCCCC1)Nc1cc(C(F)(F)F)ccc1Cl`: the half-inhibitory concentration (IC50) came to 400 nM.
Then `CC(C)c1ccc(NC(=O)c2ccc(C(=O)NCC3CCN(CC4CCCCC4)CC3)cc2)cc1`, with 900 nM; and `Cc1cc(C)c2c(c1)C(=NO)CCN2`, with 940 nM; and `COc1cc2nc(NCCn3cccn3)nc(NCCc3ccccc3)c2cc1OC`, with 280 nM.
Regarding `O=C(NC1CCCCC1)N(Cc1ccc(-c2cccc(CNCc3ccc4c(c3)OCO4)c2)cc1)C1CCN(Cc2ccccc2)CC1`, the IC50 worked out at 690 nM.
With `COc1cc(C(=O)N2N=C(c3c(-c4ccccc4)c4cc(Br)ccc4[nH]c3=O)CC2c2cccc([N+](=O)[O-])c2)cc(OC)c1OC` (stereo unspecified), the 50% inhibitory concentration (IC50) was 940 nM.
The figure for `O=C(Nc1ccc(C(=O)OC[C@@H]2CCCN3CCCC[C@H]23)cc1)c1ccc([N+](=O)[O-])cc1` is 720 nM.
The compound `O=C(NC1CCN(Cc2ccc(F)cc2)CC1)c1ccc(-c2cccc(C(F)(F)F)c2)s1` showed an IC50 of 1360 nM.
The figure for `NC(=O)c1cccc(Nc2nccc(Nc3ccc(Oc4cccc5ccccc45)cc3)n2)c1` is 1150 nM; for `Cc1ccoc1C(=O)Nc1ccc(-c2cccc(-c3nc4c(C)cccc4[nH]3)c2)cc1` it is 730 nM; for `CCCCNCc1ccc(-c2nc(CN(Cc3ccc(Cl)c(Cl)c3)C(=O)CN(C)C)cs2)cc1` it is 800 nM.
Then `CCc1sc(-c2ccc(C(C)(C)C)cc2)nc1C(=O)NCCCN1CCCC1=O`, with 990 nM.
Then `Cc1nc(N)nc(N)c1OCc1cccc2c1ccc1ccccc12`, with 100 nM; and `Cc1cc(N2CCN(CC3CCN(C)CC3)CC2)nc(Nc2ccc(Br)cc2)n1`, with 440 nM.
`CCCOc1cc(NC(=O)Nc2ccnc3ccccc23)cc(OCCC)c1` returned an IC50 of 730 nM.
On to `COc1ccc(CNCCc2cccs2)cc1-c1cccc(S(=O)(=O)NCCN2CCCC2)c1`, for which the IC50 was 880 nM.
For the compound `O=C(Nc1ccc(C(F)(F)F)cc1)Nc1ccccc1N1CCNCC1`, the IC50 stood at 500 nM.
`CN(C)CCCOc1ccccc1CN1CC[C@H](NC(=O)c2ccc(Cl)c(Cl)c2)C1` displayed an IC50 of 1110 nM.
Then `CC(=O)Oc1cc(C)ccc1C1CCN(CCCCNC(=O)c2ccc(-c3ccc(C(F)(F)F)cc3)cc2)CC1`, with 650 nM; and `CCCCCN=C(N)N/N=C/c1c[nH]c2ccc(OC)cc12`, with 960 nM; and `CN1CCC(Oc2ccc(CN3CC[C@H](NC(=O)c4cc(F)cc(F)c4)C3)c3ccccc23)C1` (stereo partly specified), with 840 nM.
Then `C=C(NC(=O)C1CCCCC1)C(=O)OC`, with 850 nM; and `OCCOCCNCc1cccc(C#Cc2cc3ncnc(Nc4ccc(OCc5cccc(F)c5)c(Cl)c4)c3s2)n1`, with 780 nM; and `COc1cc(CNCCCCCCNCc2cc(OC)cc3ccccc23)c2ccccc2c1`, with 590 nM.
`CCOC(=O)c1cnc2c(OC)cc(OC)c(Cl)c2c1Nc1cccc(C)c1` yielded a concentration for half-maximal inhibition (IC50) of 840 nM.
The figure for `CC(C)(C)c1ccc(NC(=O)c2cccc(CN3CCCN(Cc4ccsc4)CC3)c2)cc1` is 760 nM; for `COc1ccc2nc3cc(Cl)ccc3c(NCCN(C)C)c2c1` it is 190 nM.
`c1cnc2ccc(NCc3ccc(-c4ccc(CNC5CCCC5)cc4)cc3)cc2c1` returned an IC50 of 870 nM.
With `O=C(/C=C/c1cccs1)NC1CCC(CN2CCC(c3c[nH]c4ccccc34)CC2)CC1` (stereo unspecified), the IC50 turned out to be 1050 nM.
The figure for `CC(C(=O)N1CCCC1)N1CCN(C(c2ccccc2)c2ccccc2)CC1` (stereo unspecified) is 1100 nM; for `Cc1cccc2[nH]c(-c3ccc(-c4cccc(NC(=O)Nc5cccc(C#N)c5)c4)cc3)nc12` it is 540 nM; for `CCCCNc1c(CC)c(C)c(C#N)c2nc3ccccc3n12` it is 380 nM.
Then `CN1C(=CC(=O)NC(=O)c2ccccc2)C(C)(C)c2ccccc21`, with 640 nM; and `CCc1cn2c3c(cc(C(=O)N[C@@H](Cc4ccccc4)[C@H](O)CNCc4cccc(C)c4)cc13)N(C)S(=O)(=O)CC2`, with 250 nM; and `O=C(Nc1ccc(OC2CCN(Cc3ccsc3)C2)c(Cl)c1)c1ccsc1` (stereo unspecified), with 1020 nM.
With `CCC(C)CNC(=O)CN1CN(c2ccccc2)C2(CCN(C(=O)c3ccc(Br)cc3)CC2)C1=O` (stereo unspecified), the IC50 was 1070 nM.
Consider `O=C(NCc1cccc(C(F)(F)F)c1)C1CCCN(C(=O)c2ccc(O)c(-c3ccc(Cl)c(Cl)c3)c2)C1` (stereo unspecified), for which the IC50 is 800 nM.
Turning to `O=C(NCCCCN1CCC(c2ccc3c(c2O)CCCC3)CC1)c1ccc(-c2ccc(Cl)cc2)cc1`, the IC50 came out at 750 nM.
The figure for `CCn1c(-c2nc(-c3ccnc(N4CCN(C)CC4)c3)cnc2N)nc2cc(S(C)(=O)=O)ccc21` is 810 nM.
For the compound `COc1cccc2cc(C(=O)N[C@@H](CC(C)C)C(=O)N[C@H](/C=N/NC(=O)OC(C)(C)C)CC(=O)OC(C)(C)C)oc12`, the IC50 was determined as 400 nM.
Then `COC(=O)C(c1ccc(NC(=O)[C@H](CC(C)C)NC(=O)OC(C)(C)C)cc1)c1ccc(NC(=O)[C@H](CC(C)C)NC(=O)OC(C)(C)C)cc1`, with 350 nM; and `Cc1cc(C(=O)NCc2ccc(-c3c(C)noc3C)cc2)n(-c2ccc(Cl)cc2)n1`, with 530 nM.
The figure for `Cc1nc(C)c(CC(=O)Nc2cccc(-c3cccc(-c4nc5ccc(C(F)(F)F)cc5[nH]4)c3)c2)s1` is 830 nM; for `COc1ccc2c(=O)c(-c3ccc(OC(F)(F)F)cc3)c(C)[nH]c2c1` it is 230 nM; for `O=C(Nc1ccc(OC2CCN(Cc3ccc(F)cc3)CC2)c(Cl)c1)c1ccoc1` it is 1180 nM.
In turn, `COC(=O)c1ccccc1COc1ccc(CC2(NC(=O)[C@H](Nc3ccc(C#N)c4ccccc34)C(C)(C)C)CCCC2)cc1` had a concentration for half-maximal inhibition (IC50) of 860 nM.
For `CC(C)NCc1ccc(OCc2cccc(COc3ccc(CNC(C)C)cc3I)c2)c(I)c1`, the IC50 was found to be 90 nM.
Consider `N#Cc1cccc([C@H](O)[C@@H]2CN(CCC3CCCCC3)CC[C@@]2(O)c2ccccc2)c1`, for which the IC50 worked out at 130 nM.
As for `O=C(Nc1cccc(C(F)(F)F)c1)NC1CCN(c2ccnc3ccccc23)CC1`, the IC50 was 990 nM.
The figure for `CCCCCN1CCCC1CNS(=O)(=O)c1ccc(C(=O)Nc2ccc(C(F)(F)F)cc2)cc1` (stereo unspecified) is 840 nM; for `O=C(NCc1ccc(F)cc1)c1cc(Br)cc(N2CCN(c3ccncc3)CC2)c1` it is 1230 nM.
On to `Cc1cc(N(C)C2CCN(C)C2)nc(Nc2ccc(Cl)cc2)n1` (stereo unspecified), for which the IC50 came out at 340 nM.
Then `N#Cc1ccc(CN2CCC(Oc3ccc(NC(=O)c4ccccc4)cc3Cl)CC2)cc1`, with 1260 nM; and `CCNc1cc(C(=O)N[C@@H](Cc2ccccc2)[C@H](O)CNC2CCC(C)(C)C2)cc(N2CCCCS2(=O)=O)c1` (stereo partly specified), with 140 nM.
Compound `CN(C)CCc1coc2ccc(C(=O)Nc3ccc(-c4ccc(O)cc4)cc3)cc12` displayed an IC50 of 1080 nM.
For the compound `NC(=O)CN1CC=C(c2c[nH]c3ccc(Br)cc23)CC1`, the IC50 was determined as 1100 nM.
For `Cc1cccc2[nH]c(-c3ccc(-c4ccc(NC(=O)C5CCN(C)CC5)cc4)cc3)nc12`, the 50% inhibitory concentration (IC50) stood at 750 nM.
In turn, `O=C(NC(CCCN1CCC2(CC1)OCc1ccccc12)c1ccc(Cl)c(Cl)c1)c1cc(C(F)(F)F)cc(C(F)(F)F)c1` (stereo unspecified) came in with a half-maximal inhibitory concentration (IC50) of 540 nM.
Then `CN1CCN(c2nc(NCCc3ccc(O)cc3)nc(NCc3ccccc3-c3ccc(C(F)(F)F)cc3)n2)CC1`, with 970 nM; and `COc1cccc(C(=O)Nc2ccc(-c3nc4ccccc4[nH]3)cc2)c1`, with 800 nM; and `COc1ccc(N2CCN(CCCNC(=O)c3ccc(NC(=O)c4cc(Cl)cc(Cl)c4)cc3)CC2)c(OC)c1`, with 270 nM.
Take `CCOc1ccc(C2CCN(CCCCNC(=O)c3ccc(NC(=O)c4ccc(Cl)cc4)cc3)CC2)c(Cl)c1`: the IC50 came out at 730 nM.
In turn, `Cc1ccc(Cn2nc(Cl)c(N3CCCNCC3)cc2=O)cc1NC(=O)Nc1ccc(-c2ccccc2)cc1` had an IC50 of 670 nM.
Then `CCN(c1ccccc1)S(=O)(=O)c1ccc(NC(=O)c2cc(-c3cc(C)ccc3O)n[nH]2)cc1`, with 770 nM; and `O=[N+]([O-])c1cccc(-c2nc(-c3ccc(Br)cc3)[nH]c2-c2ccc(Br)cc2)c1`, with 760 nM.
The figure for `O=C(/C=C/C=C/c1ccccc1)NC1CCC(CN2CCC(c3c[nH]c4ccccc34)CC2)CC1` (stereo unspecified) is 870 nM; for `COc1cccc(OC)c1OCCCOc1c(C)nc(N)nc1N` it is 460 nM.
In the case of `Cc1[nH]c2ccccc2c(=O)c1Br`, the IC50 was 840 nM.
Compound `O=C(NC1CCC(CN2CCC(c3c[nH]c4ccccc34)CC2)CC1)c1cc(-c2ccc(F)cc2F)ccc1O` (stereo unspecified) returned an IC50 of 360 nM.
Then `O=C(/C=C/c1ccc(Cl)c(Cl)c1)NC1CCC(CN2CCC(c3c[nH]c4ccccc34)CC2)CC1` (stereo unspecified), with 230 nM; and `Cn1cc(Br)c(-c2cccc(Nc3ccnc4cc(-c5nccs5)ccc34)c2)n1`, with 980 nM.
The compound `Cc1cc(O)c(CN2CCN(Cc3cccs3)CC2)cc1C(C)C` had an IC50 of 720 nM.
In turn, `CNC(=O)Cc1ccc(C(=O)Nc2cccc(-c3csc(-c4nc5ccccc5[nH]4)c3)c2)cc1` came in with an IC50 of 270 nM.
Turning to `CC(=O)c1ccc(-c2ccc(C(=O)NCCCCN3CCC(c4ccc5c(c4OCC(N)=O)CCCC5)CC3)cc2)s1`, the IC50 came to 890 nM.
Consider `c1ccc(-c2ccc(CNCCCNc3nc4ccccc4[nH]3)cc2)cc1`, for which the IC50 was 780 nM.
Compound `Cc1onc(-c2ccccc2Cl)c1C(=O)Nc1cc(Cl)c(Cl)cc1Cl` gave an IC50 of 1180 nM.
Then `Cn1nc(-c2ccc(S(=O)(=O)N3CCC(CN4CCC(c5c[nH]c6ccccc56)CC4)CC3)s2)cc1C(F)(F)F`, with 1090 nM; and `CCCCCCN1CCC(CNCc2cccc(Cl)c2)CC1`, with 1220 nM; and `O=C(CCc1ccccc1)NC(c1ccc(Cl)cc1)c1ccc2cccnc2c1O` (stereo unspecified), with 850 nM.
Then `CCCCCCNC(=O)C1Cc2c([nH]c3ccc(C)cc23)C2(CCN(CCc3ccccc3)CC2)N1` (stereo unspecified), with 1270 nM; and `CS(=O)(=O)Nc1cccc(-c2cnc3[nH]cc(-c4ccc(C(=O)O)cc4)c3c2)c1`, with 860 nM.
